“And” between values parts separate entries of the source, which are not always exact repeats. Equal values may be shown once. “Also recorded” adds a separate entry of the source.
Columns and labels:
[1] = test system: human IgG in serum from patients with pancreatic cancer; assay: ELISA of serum IgG binding to MUC4 epitope PVTSLSSVSTGDTTP (OD 405 nm); conditions: sera from patient S1 and S15, dilutions 1:2 and 1:10
Source text: The MUC4 peptide is targeted by human IgG in serum from patients with cancer. […] The epitope PVTSLSSVSTGDTTP was linked to an ELISA plate via a streptavidin-biotin scaffold and tested for IgG recognition in serum from different patients with pancreatic cancer. The optical density (OD) read at 405 nm wavelength was used to detect IgG binding in sera from patients showing that some individuals have a higher IgG concentration to this epitope as compared to other patients, some patients have no IgG reactivity at all showing that there is individual IgG reactivity to this distinct MUC4 epitopes. The anti-human IgG directed antibody A2064 clone GG-5 from Sigma-Aldrich coupled to Alkaline-Phosphatase was used to detect epitope reactivity. The assay layout and reactivity reading are shown in Tables 12 and 13 (layouts and ODs, respectively) below.
Sera from different patients with PDAC (labeled as S1-S15) were incubated with the target epitope at different dilutions in phosphate-buffered saline (PBS) (1:2 and 1:10) and reactivity was tested based on the OD reading.

TIL [2] = assay: Peptide recognition assay in TIL (IFN-γ ELISA / IL-17 in supernatant, 7 days); format: cell-based, human
Protocol: Peptides from tumor-associated antigens (TAAs), listed in Table 5 were placed at 1 ug/well in duplicates using anti-CD3 at 30 ng/mL as well as PHA at 5 μg/mL as positive controls.
The differences in TIL versus PBMCs can also be defined by peptide reactivity. 10e^4 TIL or 10e^4 PBMC/well were co-cultured with the peptides listed in Table 11 below for 7 days and the supernatants were tested for IFN-γ production.

TIL [3] = assay: Treg detection assay; format: cell-based, human; conditions: TIL with or without cardiolipin
Protocol: Briefly, cells were stained extracellularly with CD3 PE (clone UCHT-1, BD 555749), CD4 V450 (clone RPA-T4, BD 561838), CD8 APC-Cy7 (clone SK1, BD 557834), CD25 PE-Cy7 (clone 2A3, BD 335824), CD127 APC (clone R34.34, Beckman Coulter B42026) for 15 minutes in ice and then washed and permeabilized using Biolegend's True-Nuclear Transcription Factor Buffer Set according to manufacturer's instructions.
Cells were then stained intracellularly with FOXP3 Alexa488 antibody (clone 259D/C7, BD 560047) or an IgG1 isotype control Alexa 488 (BD 557702), and CD3 PE (clone UCHT-1, BD 555749). Tregs cells were identified by flow cytometry as CD3^+ CD4^+ CD25^high CD127^−FoxP3^+).

TIL [4] = assay: IFN-γ induction assay / cytokine production of TIL after anti-CD3 crosslinking, 24 h, 10e5 cells; format: cell-based, human; conditions: TIL with or without cardiolipin
Protocol: In table 3, TIL were seated in at 10e^5 cells/well in triplicates in medium containing IL-2/IL-7/IL-15+cardiolipin (medium) or in IL-2/IL-7/IL-15+cardiolipin plus anti-CD3-IgG1 at 30 ng/mL to crosslink the T-cell receptor.
Supernatants were harvested after 24 hours in order to test for maximal T-cell activation defined in 24 hrs./10e^5 cells for comparison. The delta between maximal stimulation (b) and constitutive cytokine production (A) is summarized in row “delta (B-A)”.
This assay is used to measure the IFN-γ production after anti-CD3 induced activation during 24 h in 10^5 cells.

TIL [5] = assay: RNA sequencing, differential gene expression in TIL grown with and without cardiolipin; format: cell-based, human; conditions: TIL expanded with vs without cardiolipin, DESeq2 FDR <0.10
Protocol: RNA from TIL was isolated using the commercially available RNeasy Mini Kit (Qiagen) and sequencing was done using the Illumina NovaSeq 6000 system with 100 bp paired end read lengths. Adapters were removed.
Transcriptome sequencing data alignment was performed using STAR two-pass method to human genome build hg19. Duplicates were marked using the Picard's MarkDuplicates tool and reads were split using the GATK SplitNCigarReads tool and variants were called using Varscan2. STAR-Fusion was used to identify candidate fusion transcripts and its output was annotated using AGFusion.
RNA sequencing was performed in seven of TIL expansions (i.e. from seven individual patients) with or without cardiolipin and tested for differential gene expression (FIG. 15). Genes with extremely low counts across samples were removed because they provide little evidence for differential expression and may interfere with some of the statistical approximations used.

TIL [6] = assay: CD107a assay; format: cell-based, human; conditions: TIL with or without cardiolipin
Protocol: Briefly, positive control cells were stimulated with 1 μg/mL of PMA; non-stimulated cells served as the control and data were performed in triplicates. Both stimulated and non-stimulated cells were incubated with a protein transport inhibitor containing monensin (BD, 51-2092kz) and CD107a PE antibody (clone H4A3, BD 555801) for 2 hours. Then an extracellular staining was performed using CD3 PE-Cy7 (clone UCHT1, BD 563423), CD4 V450 (clone RPA-T4, BD 561838) and CD8 APC-Cy7 (clone SK1, BD 557834). Control cells are PBMCs that had been cultured for 48-72 hours in the presence of 300 IU/mL IL-2 and 50 IU/mL IL-15. The assay is considered as positive if the positive control cells (PMA stimulated) have at least 2× the SD of the triplicates of the negative control.

PBMCs = assay: Percentage of γδ T-cells in healthy individuals PBMCs expanded in presence or absence of cardiolipin; format: cell-based, human
Protocol: PBMCs of healthy individuals expanded in the presence of cardiolipin without interleukins increased the frequency of γδ T-cells (Table 4).
(§1) TIL and PBMCs were analyzed using several DuraClone (Beckman Coulter) Panels, always with addition of the LIVE/DEAD™ Fixable Yellow Dead Cell Stain Kit: DuraClone IM T-cell Subsets tube adding LAG-3 BV650 and CD95 BV785 and Duraclone IM TCRs tube. Besides, another panel with commercially available antibodies were used, which included CD4 Pacific Blue, CD8 KromeOrange, CXCR3 BV650, CD95 BV785, CD103 FITC, CCR7 PE, CCR4 PE/Dazzle, TCR pan-γ/δ PC5.5, CCR6 PC-7, CCR9 Alexa Fluor 647, CD45RA AF700, CD3 APC-A750 and LIVE/DEAD™ Fixable Yellow Dead Cell Stain Kit. After 15 minutes incubation, T-cells and PBMCs were washed in PBS-2% FBS and acquired using a CytoFlex LX flow cytometer from Beckman Coulter. Analysis was performed using FlowJo software.

TIL [7] = assay: Flow cytometric analysis of TIL and PBMC phenotype; format: cell-based, human
Protocol: Different phenotypes in TIL were observed, when using different tumor regions in the three-expansion step herein proposed.
γδ T-cells were negatively sorted using a commercial kit from Stem Cell. Purity of negatively sorted cells was tested by flow cytometry using the DURAclone panel IM TCRs.
as §1

[8] = test system: PBMCs from healthy individuals; assay: Cardiolipin titration: IFN-γ and IL-17A production in PBMCs and whole blood; format: cell-based, human; conditions: 250 nM cardiolipin, PBMCs from healthy individuals stimulated with OKT3 (30 ng/mL)
NRLP3 pathway = assay: Testing of the NRLP3 pathway: KRAS peptide recognition by TIL expanded with or without MCC950; format: cell-based, human; conditions: TIL expanded with cardiolipin in presence of MCC950 (10 uM/mL)
Protocol: The number of peptide targets recognized as well as the amount of IFN-γ in pg/10e^4 TIL/target/7 days was analyzed and compared in the cardiolipin-positive versus negative group testing with Human IFN-γ ELISA basic kit (HRP).
Since cardiolipin has been reported to activate the NRLP3 inflammasome, aliquots of these same TIL preparation were expanded and the absence or presence of the NRLP3 inhibitor (MCC950) was investigated.

Compound: PVTSLSSVSTGDTTP [MUC4-P3 [Mut][WT]]
- IgG binding reactivity to the nominal MUC4 epitope [1]: strong IgG binding reactivity
- Pancreatic TIL D1599 IFN-y (TIL [2]; Pancreatic TIL D1599): 0 pg/mL
- Pancreatic TILD1599 IL 17 (TIL [2]; Pancreatic TIL D1599): 2 pg/mL

Compound: cardiolipin
- regulatory T-cells (Treg) in TIL (TIL [3]): no differences
- IFN-γ production in TIL (TIL [4]): no differences
- IL-17 production in TIL (TIL [4]): no differences
- CXCL9 gene expression (TIL [5]): over-expressed
- CXCL10 gene expression (TIL [5]): over-expressed
- KBTBD11 gene expression (TIL [5]): statistically reduced
- CD107 induction in TIL (TIL [6]): no differences
- frequency of γδ T-cells (PBMCs; PBMCs of healthy individuals expanded with cardiolipin without interleukins): increased
- Percentage of γδ T-cells, w/CL (PBMCs; healthy individuals PBMCs, presence of cardiolipin, without interleukins, single donors, listed as CL): 10.5% and 9.32% and 26% and 10.9% and 22.9%
- Percentage of γδ T-cells, w/CL, Average (PBMCs; healthy individuals PBMCs, presence of cardiolipin, average of donors): 15.92%
- recognition of commonly shared tumor-associated antigens (KRAS, mesothelin) by TIL, IFN-γ production (TIL [2]; TIL expanded in cardiolipin): recognized a high number of KRAS as well as mesothelin targets
- T-cell maturation, activation, or exhaustion markers (TIL [7]; CD4+, CD8+, double-positive, double-negative or γδ+ TIL, with vs without cardiolipin): not observed
- frequency of γδ TIL (TIL [7]; TIL expanded with IL-7, IL-15, IL-21 with vs without cardiolipin): increased
- production of IFN-γ [8]: favorable production of IFN-γ

Compound: CC(C)(O)c1coc(S(=O)(=O)NC(=O)Nc2c3c(cc4c2CCC4)CCC3)c1 [MCC950]
- tumor associated antigen (KRAS epitope) recognition in TIL (NRLP3 pathway): statistically reduces the function of cardiolipin; also recorded: reduces the tumor associated antigen recognition in TIL
